Source: patent US4681899A, “Method of preventing the growth of malaria parasites in erythrocytes” (priority 1985, dated 1987)

Tests used:
[1] = test system: sickle red cells; conditions: studies on sickle red cells; cited from earlier work
[2] = test system: mice; conditions: oral administration; cited from earlier work
[3] = test system: p. Vinckei; assay: in vivo efficacy in mice infected with p. Vinckei (FIG. 4); conditions: oral, 3 mg/kg body weight
Protocol: Mice: Four to eight-week-old BALB/C male and female mice from a breeding colony were used.
Parasite: Stabilates of p. Vinchei TCC 30091) and p. Falciparum (FCR-3 knobless) were used.
In vivo method: The tail vein was nicked and a blood droplet was smeared.
The smears were stained with Giemsa, infected erythrocytes (which contain trophozoite and schizont stage parasites) were counted and percent parasitemia estimated.
Approximately 10^5 p. Vinchei parasites were injected intraperitoneally (I.P.) into a donor mouse and at the time of ascending parasitemia, the infected mouse was exsanguinated and red blood cells are prepared for in vivo experimentation.
(§1) A control and a drug concentration (approximately 3 mg/kg body weight/day) were provided orally via drinking water. Water containing drugs were prepared daily. Water intake were monitored daily to insure proper dosage and hydration levels. A commercial food pellet were provided ad libitum.
To each mouse, 10^6 parasitized red blood cells were injected I.P., and daily blood samples were collected from the tail vein to monitor the levels of parasitemia.
Five mice were used for each group tested.
During the experimentation, we monitored both the percent parasitemia and percent survival rate of each experimental group.
Using p. Vinckei and a mice model, Ohnishi has also tested the efficacy of W-7.

[4] = test system: beta-adrenergic; conditions: cited from earlier work
[5] = test system: p. Falciparum; assay: in vivo efficacy in mice infected by p. Falciparum (FIG. 3); conditions: 3 mg/kg/day orally
[6] = test system: mice; assay: side effects in mice at 3 mg/kg/day orally; type: in vivo
Protocol: as §1
Ohnishi tested an in vivo efficacy of these drugs using mice infected by p. Falciparum.

[7] = test system: man; conditions: adults; mixture of l-form and d-form; cited from earlier work

SMILES | effect on red cell metabolism and cell sickling [1] | acute LD50 [2] | beta-adrenergic blocker activity of the form [4] | inhibition of the growth of parasites in mice [5] | side effect [6] | other results
NCCCCCCNS(=O)(=O)c1cccc2c(Cl)cccc12 [W-7] | altered the red cell metabolism and thus affected the cell sickling | 75 mg/kg |  |  |  | life span after infection [3]: extended their life span after infection; suppression of the growth of parasites [3]: suppressed the growth of parasites
C=CCc1ccccc1OCC(O)CNC(C)C (stereo not drawn) [alprenolol] | altered the red cell metabolism and thus affected the cell sickling |  |  |  |  | 
CC(C)NC[C@@H](O)COc1cccc2ccccc12 [d-propranolol] |  |  | inactive beta-adrenergic blocker | effectively inhibited the growth of parasites in mice | no side effect was observed | 
C=CCc1ccccc1OC[C@@H](O)CNC(C)C [l-alprenolol] |  | 278 mg/kg |  |  |  | 
CC(C)NC[C@H](O)COc1cccc2ccccc12 [l-propranolol] |  |  | active beta-adrenergic blocker | effectively inhibited the growth of parasites in mice | no side effect was observed | 
CC(C)NCC(O)COc1cccc2ccccc12 (stereo not drawn) [propranolol] | altered the red cell metabolism and thus affected the cell sickling |  |  |  |  | usual effective dose in man as an anti-hypertensive drug (daily) [7]: 160-480 mg daily; usual effective dose in man as an anti-hypertensive drug (per body weight) [7]: 3-8 mg/kg body weight/day
